Assay results as given in PubChem BioAssay (NCI).
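Cells were grown in 96-well plates and exposed to each compound for 48 hours at five concentrations; endpoints were interpolated linearly between bracketing concentrations, or set to the highest concentration if not reached. TGI is the concentration that stops growth completely.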

How the values were obtained:
Assay in all cases: NCI tumour cell line growth inhibition, 48 h
[1] = test system: NCI/ADR-RES ovarian
[2] = test system: SK-MEL-28 melanoma
[3] = test system: HCT-116 colon
[4] = test system: UO-31 renal
[5] = test system: SNB-19 CNS
[6] = test system: SF-268 CNS
[7] = test system: K-562 leukemia
[8] = test system: HS 578T breast
[9] = test system: HCT-15 colon
[10] = test system: MOLT-4 leukemia
[11] = test system: NCI-H522 lung
[12] = test system: NCI-H23 lung
[13] = test system: IGROV1 ovarian
[14] = test system: HL-60(TB) leukemia
[15] = test system: 786-0 renal
[16] = test system: SK-MEL-2 melanoma
[17] = test system: T-47D breast
[18] = test system: A549 NSCLC
[19] = test system: ACHN renal
[20] = test system: KM12 colon
[21] = test system: OVCAR-4 ovarian
[22] = test system: CAKI-1 renal
[23] = test system: SN12C renal
[24] = test system: A498 renal
[25] = test system: NCI-H460 lung
[26] = test system: M14 melanoma
[27] = test system: MDA-N
[28] = test system: RXF 393 renal
[29] = test system: UACC-62 melanoma
[30] = test system: HCC-2998 colon
[31] = test system: SW-620 colon
[32] = test system: NCI-H226 lung
[33] = test system: SK-OV-3 ovarian
[34] = test system: U251 CNS
[35] = test system: BT-549 breast
[36] = test system: SNB-75 CNS
[37] = test system: HOP-62 NSCLC
[38] = test system: COLO 205 colon
[39] = test system: MDA-MB-231 breast
[40] = test system: EKVX NSCLC
[41] = test system: SK-MEL-5 melanoma
[42] = test system: HOP-92 NSCLC
[43] = test system: MDA-MB-435
[44] = test system: TK-10 renal
[45] = test system: OVCAR-3 ovarian
[46] = test system: DU-145 prostate
[47] = test system: RPMI-8226 leukemia
[48] = test system: MCF7 breast
[49] = test system: PC-3 prostate
[50] = test system: SF-539 CNS
[51] = test system: HT29 colon
[52] = test system: CCRF-CEM leukemia
[53] = test system: MALME-3M melanoma
[54] = test system: OVCAR-5 ovarian
[55] = test system: SF-295 CNS
[56] = test system: UACC-257 melanoma
[57] = test system: SR leukemia
[58] = test system: OVCAR-8 ovarian
[59] = test system: LOX IMVI melanoma

O=C1C2=C(CC3=C(C2)CS(=O)(=O)C3)C(=O)C2=C1CC1=C(C2)CS(=O)(=O)C1 was tested, and the TGI [1] was 66.5 µM, the TGI [2] was > 70 µM and the TGI [3] was 28.5 µM. The TGI [4] was > 63.4 µM, the TGI [5] was 35.5 µM and the TGI [6] was > 47.7 µM. For the same molecule, the TGI [7] was > 39.1 µM, the TGI [8] was > 60.6 µM and the TGI [9] was > 100 µM. For the same molecule, the TGI [10] was > 65.6 µM, the TGI [11] was 22.2 µM and the TGI [12] was 48.4 µM. The TGI [13] was 36.5 µM, the TGI [14] was 22 µM and the TGI [15] was 40.6 µM. The TGI [16] was > 75.2 µM, the TGI [17] was 8.66 µM and the TGI [18] was > 100 µM. For the same molecule, the TGI [19] was > 66.2 µM, the TGI [20] was > 40.8 µM and the TGI [21] was > 33.1 µM. For the same molecule, the TGI [22] was > 69.5 µM, the TGI [23] was 30.2 µM and the TGI [24] was > 90.9 µM. For the same molecule, the TGI [25] was > 100 µM, the TGI [26] was > 54.9 µM and the TGI [27] was 20.8 µM. For the same molecule, the TGI [28] was 49.6 µM, the TGI [29] was 37.1 µM and the TGI [30] was > 51.6 µM. The TGI [31] was 47.1 µM, the TGI [32] was > 59.7 µM and the TGI [33] was > 73.2 µM. The TGI [34] was 31 µM, the TGI [35] was 44.8 µM and the TGI [36] was > 41 µM. For the same molecule, the TGI [37] was 37.3 µM, the TGI [38] was 35.7 µM and the TGI [39] was 27.3 µM. The TGI [40] was > 62.7 µM, the TGI [41] was 37.3 µM and the TGI [42] was > 77.7 µM. For the same molecule, the TGI [43] was 21.1 µM, the TGI [44] was > 66.9 µM and the TGI [45] was 9.03 µM. The TGI [46] was > 87 µM, the TGI [47] was 55.5 µM and the TGI [48] was 35.1 µM. For the same molecule, the TGI [49] was 51.6 µM, the TGI [50] was > 75.2 µM and the TGI [51] was 41.4 µM. The TGI [52] was 34.3 µM, the TGI [53] was 19.2 µM and the TGI [54] was > 78.3 µM. For the same molecule, the TGI [55] was 44.9 µM, the TGI [56] was > 61.2 µM and the TGI [57] was 18.6 µM. For the same molecule, the TGI [58] was > 59.7 µM and the TGI [59] was > 59.9 µM.
For O=c1ccn(COC(COCc2ccccc2)COCc2ccccc2)c(=O)[nH]1, the TGI [1] was > 100 µM, the TGI [2] was > 100 µM and the TGI [3] was > 100 µM. For the same molecule, the TGI [4] was > 100 µM, the TGI [5] was > 100 µM and the TGI [7] was > 100 µM. For the same molecule, the TGI [8] was > 100 µM, the TGI [9] was > 100 µM and the TGI [10] was > 100 µM. The TGI [12] was > 100 µM, the TGI [13] was > 100 µM and the TGI [14] was > 100 µM. The TGI [16] was > 100 µM, the TGI [17] was > 100 µM and the TGI [20] was > 100 µM. The TGI [21] was > 100 µM, the TGI [22] was > 100 µM and the TGI [23] was > 100 µM. The TGI [24] was > 100 µM, the TGI [25] was > 100 µM and the TGI [26] was > 100 µM. The TGI [27] was > 100 µM, the TGI [28] was > 100 µM and the TGI [29] was > 100 µM. For the same molecule, the TGI [30] was > 100 µM, the TGI [31] was > 100 µM and the TGI [32] was > 100 µM. For the same molecule, the TGI [33] was > 100 µM, the TGI [34] was > 100 µM and the TGI [35] was > 100 µM. The TGI [36] was > 100 µM, the TGI [37] was > 100 µM and the TGI [38] was > 100 µM. The TGI [39] was > 100 µM, the TGI [41] was > 100 µM and the TGI [42] was > 100 µM. For the same molecule, the TGI [43] was > 100 µM, the TGI [44] was > 100 µM and the TGI [45] was > 100 µM. The TGI [46] was > 100 µM, the TGI [47] was > 100 µM and the TGI [48] was > 100 µM. For the same molecule, the TGI [49] was > 100 µM, the TGI [51] was > 100 µM and the TGI [52] was > 100 µM. The TGI [53] was > 100 µM, the TGI [54] was > 100 µM and the TGI [55] was > 100 µM. For the same molecule, the TGI [56] was > 100 µM, the TGI [57] was > 100 µM and the TGI [58] was > 100 µM. The TGI [59] was > 100 µM.
